This is an account of results in US11529362B2, “Physiologically balanced injectable formulations of fosnetupitant” (HELSINN HEALTHCARE SA, priority 2016, dated 2022).

The structures appear in SMILES notation. Like-named read-outs stand apart in the source and are kept apart here.

For series [1] the following is noted: Akynzeo prescribing information, cited from earlier work.
Series [2] in a line: p-Netu solubility studies. Type of series: physicochemical. Conditions: in water at acidic pH values less than 7.0. The source says:
A study was undertaken to determine the maximum allowable concentration of netupitant in aqueous solutions of p-Netu, above which unacceptable precipitation is observed.

The conditions of series [3]: presence of EDTA, in proportion to its concentration in solution.

Take `Cc1ccccc1-c1cc(N2CCN(C)CC2)ncc1N(C)C(=O)C(C)(C)c1cc(C(F)(F)F)cc(C(F)(F)F)c1` [netupitant, 2-(3,5-bis(trifluoromethyl)phenyl)-N,2-dimethyl-N-(6-(4-methylpiperazin-1-yl)-4-(o-tolyl)pyridine-3-yl)propanamide]: the systemic exposure result in series [1] (dose increase from 10 mg to 300 mg) was “greater than dose-proportional increase”; in series [1] (dose increase from 300 mg to 450 mg) it was “dose-proportional increase”.

As for `Cc1ccccc1-c1cc(N2CC[N+](C)(COP(=O)([O-])O)CC2)ncc1N(C)C(=O)C(C)(C)c1cc(C(F)(F)F)cc(C(F)(F)F)c1` [p-Netu, 4-(5-(2-(3,5-bis(trifluoromethyl)phenyl)-N,2-dimethylpropanamido)-4-(o-tolyl)pyridin-2-yl)-1-methyl-1-((phosphonooxy)methyl) piperazin-1-ium], in series [2], the p-Netu solubility result is “drops significantly”.

For `O=C([O-])CN(CCN(CC(=O)[O-])CC(=O)O)CC(=O)O.[Na+].[Na+]` [EDTA, Disodium edetate], in series [3], the “conversion of p-Netu to 14-Netu” value is “reduced”.
